Experimental data as given in US6310095A, “Inhibitors of protein isoprenyl transferases” (University of Pittsburgh, priority 1998, dated 2001).
Counter-ions that a name gives are not always drawn.

Molecular target: T1, protein farnesyltransferase (Rattus norvegicus, UniProt Q02293+Q04631)
T1 construct: Rat brain protein farnesyltransferase activity is measured; from tissue; host or cells: rat brain; purified according to Reiss et al., Cell 62:81-88 (1990), steps one through three
Assay: in vitro inhibition of protein farnesyltransferase (scintillation proximity assay, biotin-K Ras B fragment)
Format: biochemical
Conditions: for inhibition at 10 µM: at 1 × 10^-5 M; for inhibition at 1 µM: read-out: % inhibition of farnesyltransferase
Excerpt: The ability of the compounds of the invention to inhibit protein farnesyltransferase or protein geranylgeranyltransferase can be measured according to the method of Moores, et al., J. Biol. Chem. 266: 14603 (1991) or the method of Vogt, et al., J. Biol. Chem. 270:660-664 (1995). In addition, procedures for determination of the inhibition of farnesylation of the oncogene protein Ras are described by Goldstein, et al., J. Biol. Chem., 266:15575-15578 (1991) and by Singh in U.S. Pat. No. 5,245,061.
In addition, in vitro inhibition of protein farnesyltransferase may be measured by the following procedure. Rat brain protein farnesyltransferase activity is measured using an Amersham Life Science commercial scintillation proximity assay kit and substituting a biotin-K Ras B fragment (biotin-[…]CO2 H), 0.1 mM final concentration, for the biotin-lamin substrate provided by Amersham. The enzyme is purified according to Reiss, Y., et al., Cell, 62: 81-88 (1990), utilizing steps one through three.
The % inhibition of protein farnesyltransferase was determined for representative compounds of the invention.

| % inhibition of farnesyltransferase (at 1 × 10^-6 M) [%] | SMILES | % inhibition of farnesyltransferase (at 1 × 10^-7 M) [%] | also measured |
| --- | --- | --- | --- |
| – | CSCC[C@H](NC(=O)c1ccc(CNc2cc(C)ns2)cc1-c1ccccc1)C(=O)O [Example 373] | – | inhibition at 10 µM: 76% |
| – | CSCC[C@H](NC(=O)c1ccc(CNc2nccs2)cc1-c1ccccc1)C(=O)O [Example 374] | – | inhibition at 10 µM: 61% |
| – | CSCC[C@H](NC(=O)c1ccc(CNCCCN2CCOCC2)cc1-c1ccccc1)C(=O)O [Example 377] | – | inhibition at 10 µM: 71% |
| – | CSCC[C@H](NC(=O)c1ccc(CNc2cc(C(C)(C)C)[nH]n2)cc1-c1ccccc1)C(=O)O [Example 381] | – | inhibition at 10 µM: 79% |
| – | CCSC[C@H](CC1CCCCC1)NCc1ccc(C(=O)N[C@@H](CCSC)C(=O)O)c(-c2ccccc2C)c1 [Example 403, [4-(1-ethylthio-3-cyclohexylprop-2-ylaminomethyl)-2-(2-methylphenyl)benzoyl]methionine] | – | inhibition at 1 µM (at 1 × 10^-6 M): 99% |
| 98 | CSCC[C@H](NC(=O)c1ccc(COCCC23CC4CC(CC(C4)C2)C3)cc1-c1ccccc1C)C(=O)O [Example 404] | – | – |
| 98 | CSCC[C@H](NC(=O)c1ccc(COCCCC2CCCCC2)cc1-c1ccccc1C)C(=O)O [Example 405] | – | – |
| – | CSCC[C@H](NC(=O)c1ccc(CN(Cc2ccccc2)c2ccccc2)cc1-c1ccccc1C)C(=O)O [Example 406, 4-(N-benzyl-N-phenyl)-aminomethyl-2-(2-methylphenyl)benzoylmethionine] | – | inhibition at 1 µM (at 1 × 10^-6 M): 95% |
| – | CSCC[C@H](NC(=O)c1ccc(COCc2ccc(Br)o2)cc1-c1ccccc1C)C(=O)[O-].[Li+] [Example 434] | 93 | – |
| 96 | CSCC[C@H](NC(=O)c1ccc(COCc2ccc(CN(C)C)o2)cc1-c1ccccc1C)C(=O)O [Example 435] | – | – |
| – | CSCC[C@H](NC(=O)c1ccc(COCc2ccc(-c3cccc(F)c3)o2)cc1-c1ccccc1C)C(=O)[O-].[Li+] [Example 436] | 89 | – |
| – | CSCC[C@H](NC(=O)c1ccc(COCc2ccc(-c3ccccc3F)o2)cc1-c1ccccc1C)C(=O)[O-].[Li+] [Example 437] | 89 | – |
| – | CSCC[C@H](NC(=O)c1ccc(COCc2ccc(-c3ccccc3C(F)(F)F)o2)cc1-c1ccccc1C)C(=O)[O-].[Li+] [Example 438] | 90 | – |
| – | CSCC[C@H](NC(=O)c1ccc(COCc2ccc(-c3cccc([N+](=O)[O-])c3)o2)cc1-c1ccccc1C)C(=O)[O-].[Li+] [Example 440] | 92 | – |
| – | CSCC[C@H](NC(=O)c1ccc(COCc2ccc(-c3cccc(C(F)(F)F)c3)o2)cc1-c1ccccc1C)C(=O)[O-].[Li+] [Example 441] | 91 | – |
| – | COc1cccc(-c2ccc(COCc3ccc(C(=O)N[C@@H](CCSC)C(=O)[O-])c(-c4ccccc4C)c3)o2)c1.[Li+] [Example 442] | 88 | – |
| – | CSCC[C@H](NC(=O)c1ccc(COCc2ccc(-c3ccc(Cl)cc3)o2)cc1-c1ccccc1C)C(=O)O [Example 443] | 97 | – |
| – | CSCC[C@H](NC(=O)c1ccc(COCc2ccc(-c3ccc(C(F)(F)F)cc3)o2)cc1-c1ccccc1C)C(=O)[O-].[Li+] [Example 445] | 94 | – |
| – | COc1ccc(-c2ccc(COCc3ccc(C(=O)N[C@@H](CCSC)C(=O)[O-])c(-c4ccccc4C)c3)o2)cc1.[Li+] [Example 446] | 91 | – |
| – | CSCC[C@H](NC(=O)c1ccc(COCc2ccc(-c3ccc(SC)cc3)o2)cc1-c1ccccc1C)C(=O)[O-].[Li+] [Example 447] | 91 | – |
| – | CSCC[C@H](NC(=O)c1ccc(COCc2ccc(-c3ccc(C=O)cc3)o2)cc1-c1ccccc1C)C(=O)[O-].[Li+] [Example 448] | 92 | – |
| – | CSCC[C@H](NC(=O)c1ccc(COCc2ccc(-c3ccc(C(C)=O)cc3)o2)cc1-c1ccccc1C)C(=O)[O-].[Li+] [Example 449] | 91 | – |
| – | CSCC[C@H](NC(=O)c1ccc(CCc2ccccc2Oc2ccccc2)cc1-c1ccccc1C)C(=O)[O-].[Li+] [Example 455] | 83 | – |
| 81 | Cc1ccccc1-c1cc(CCc2ccccc2Oc2ccccc2)ccc1C(=O)N[C@@H](CC[S+](C)[O-])C(=O)O (some centres unmarked) [Example 456] | – | – |

| % inhibition of farnesyltransferase (at 1 × 10^-6 M) [%] | SMILES | % inhibition of farnesyltransferase (at 1 × 10^-7 M) [%] | also measured |
| --- | --- | --- | --- |
| – | CSCC[C@H](NC(=O)c1ccc(CCc2ccccc2Cc2ccccc2)cc1-c1ccccc1C)C(=O)O [Example 458] | 87 | – |
| – | CSCC[C@H](NC(=O)c1ccc(CCc2cccc(Oc3ccccc3)c2)cc1-c1ccccc1C)C(=O)[O-].[Li+] [Example 459] | 92 | – |
| 88 | Cc1ccccc1-c1cc(CCc2cccc(Oc3ccccc3)c2)ccc1C(=O)N[C@@H](CC[S+](C)[O-])C(=O)O (some centres unmarked) [Example 460] | – | – |
| – | CSCC[C@H](NC(=O)c1ccc(CCc2ccc(C3CCCCC3)cc2)cc1-c1ccccc1C)C(=O)[O-].[Li+] [Example 461] | 93 | – |
| – | CSCC[C@H](NC(=O)c1ccc(CCc2ccc(Oc3ccccc3)cc2)cc1-c1ccccc1C)C(=O)[O-].[Li+] [Example 462] | 91 | – |
| 91 | Cc1ccccc1-c1cc(CCc2ccc(Oc3ccccc3)cc2)ccc1C(=O)N[C@@H](CC[S+](C)[O-])C(=O)O (some centres unmarked) [Example 463] | – | – |
| 92 | CSCC[C@H](NC(=O)c1ccc(/C=C/c2ccc3ccccc3c2)cc1-c1ccccc1C)C(=O)O [Example 465] | – | – |
| 93 | CSCC[C@H](NC(=O)c1ccc(/C=C/c2cccc3ccccc23)cc1-c1ccccc1C)C(=O)O [Example 466] | – | – |
| 96 | CSCC[C@H](NC(=O)c1ccc(CCc2ccc3ccccc3c2)cc1-c1ccccc1C)C(=O)O [Example 468] | – | – |
| 92 | CSCC[C@H](NC(=O)c1ccc(C=CCc2ccccc2)cc1-c1ccccc1C)C(=O)O [Example 469] | – | – |
| 94 | CSCC[C@H](NC(=O)c1ccc(/C=C/CC2CCCCC2)cc1-c1ccccc1C)C(=O)O [Example 471] | – | – |
| 97 | CSCC[C@H](NC(=O)c1ccc(/C=C/CCc2ccccc2)cc1-c1ccccc1C)C(=O)O [Example 472] | – | – |
| 96 | CSCC[C@H](NC(=O)c1ccc(CCCC(=O)c2ccc3ccccc3c2)cc1-c1ccccc1C)C(=O)O [Example 473] | – | – |
| 92 | CSCC[C@H](NC(=O)c1ccc(/C=C/CC(O)c2ccc3ccccc3c2)cc1-c1ccccc1C)C(=O)O (some centres unmarked) [Example 474] | – | – |
| – | CSCC[C@H](NC(=O)c1ccc(NCC(CO)(Cc2ccccc2)Cc2ccccc2)cc1-c1ccccc1C)C(=O)O [Example 475, N-[4-N-(2,2-dibenzyl-3-hydroxypropyl)amino-2-(2-methylphenyl)benzoyl]methionine sodium salt] | – | inhibition at 1 µM (at 1 × 10^-6 M): 21% |
| – | CSCC[C@H](NC(=O)c1ccc(NCC(CO)Cc2ccccc2)cc1-c1ccccc1C)C(=O)O (some centres unmarked) [Example 476, N-[4-N-(2-benzyl-3-hydroxypropyl)amino-2-(2-methylphenyl)benzoyl]methioninesodium salt] | – | inhibition at 1 µM (at 1 × 10^-6 M): 91% |
| 98 | CSCC[C@H](NC(=O)c1ccc(CCCCC2CCCCC2)cc1-c1ccccc1C)C(=O)O [Example 478] | – | – |
| – | CSCC[C@H](NC(=O)c1ccc(NCC(CO)CC2CCCCC2)cc1-c1ccccc1C)C(=O)O (some centres unmarked) [Example 479, N-[4-N-(2-cyclohexylmethyl-3-hydroxypropyl)amino-2-(2-methylphenyl)benzoyl]methionine] | – | inhibition at 1 µM (at 1 × 10^-6 M): 95% |
| 87 | CSCC[C@H](NC(=O)c1ccc(C=CCCCc2ccccc2)cc1-c1ccccc1C)C(=O)O [Example 480] | – | – |
| – | CSCC[C@H](NC(=O)c1ccc(NC(=O)c2cnccc2C(F)(F)F)cc1-c1ccccc1C)C(=O)O [Example 481, N-[4-N-(4-trifluoromethylnicotinoyl)amino-2-(2-methylphenyl)benzoyl]methionine lithium salt] | – | inhibition at 1 µM (at 1 × 10^-6 M): 95% |
| – | CSCC[C@H](NC(=O)c1ccc(C#Cc2cncnc2)cc1-c1ccccc1C)C(=O)[O-].[Li+] [Example 493] | 51 | – |
| 96 | CSCC[C@H](NC(=O)c1ccc(/C=C/c2cncnc2)cc1-c1ccccc1C)C(=O)O [Example 494] | – | – |
| 95 | CSCC[C@H](NC(=O)c1ccc(/C=C/c2cnccn2)cc1-c1ccccc1C)C(=O)O [Example 495] | – | – |
| 93 | CSCC[C@H](NC(=O)c1ccc(C=CCc2ccc3ccccc3c2)cc1-c1ccccc1C)C(=O)O [Example 496] | – | – |

| SMILES | % inhibition of farnesyltransferase (at 1 × 10^-6 M) [%] | % inhibition of farnesyltransferase (at 1 × 10^-7 M) [%] | also measured |
| --- | --- | --- | --- |
| CSCC[C@H](NC(=O)c1ccc(CCc2ccccc2-c2ccccc2)cc1-c1ccccc1C)C(=O)[O-].[Li+] [Example 452] | 96 | – | – |
| CSCC[C@H](NC(=O)c1ccc(C=Cc2ccccc2Oc2ccccc2)cc1-c1ccccc1C)C(=O)[O-].[Li+] [Example 453] | 90 | – | – |
| CSCC[C@H](NC(=O)c1ccc(C=Cc2ccccc2Cc2ccccc2)cc1-c1ccccc1C)C(=O)[O-].[Li+] [Example 457] | 92 | – | – |
| CSCC[C@H](NC(=O)c1ccc(CCc2cccc3ccccc23)cc1-c1ccccc1C)C(=O)[O-].[Li+] [Example 467] | 97 | – | – |
| CSCC[C@H](NC(=O)c1ccc(CCCc2ccc3ccccc3c2)cc1-c1ccccc1C)C(=O)[O-].[Li+] [Example 470] | 95 | – | – |
